Reference: patent US20030203864A1, “Treatment of cancer” (priority 2002, published 2003)
Entries after “also recorded” stand apart in the source; their conditions may differ.

Key:
Format in all cases: cell-based, human
[1] = test system: HMEC-1 cells; experiment: HMEC-1 proliferation assay (Coulter counter); details: 0.4 μM DNA enzyme
Description: HMEC-1 culture and proliferation assay. SV40-transformed HMEC-1 cells were grown in MCDB 131 medium with EGF (10 ng/ml) and hydrocortisone (1 μg/ml) supplements and 10% FBS. […] The cells were quantitated by Coulter counter, 24 h after the addition of serum.

[2] = test system: EGR-1; experiment: Western blot of EGR-1 in HepG2 cells
EGR-1, sequence (P18146 whole entry): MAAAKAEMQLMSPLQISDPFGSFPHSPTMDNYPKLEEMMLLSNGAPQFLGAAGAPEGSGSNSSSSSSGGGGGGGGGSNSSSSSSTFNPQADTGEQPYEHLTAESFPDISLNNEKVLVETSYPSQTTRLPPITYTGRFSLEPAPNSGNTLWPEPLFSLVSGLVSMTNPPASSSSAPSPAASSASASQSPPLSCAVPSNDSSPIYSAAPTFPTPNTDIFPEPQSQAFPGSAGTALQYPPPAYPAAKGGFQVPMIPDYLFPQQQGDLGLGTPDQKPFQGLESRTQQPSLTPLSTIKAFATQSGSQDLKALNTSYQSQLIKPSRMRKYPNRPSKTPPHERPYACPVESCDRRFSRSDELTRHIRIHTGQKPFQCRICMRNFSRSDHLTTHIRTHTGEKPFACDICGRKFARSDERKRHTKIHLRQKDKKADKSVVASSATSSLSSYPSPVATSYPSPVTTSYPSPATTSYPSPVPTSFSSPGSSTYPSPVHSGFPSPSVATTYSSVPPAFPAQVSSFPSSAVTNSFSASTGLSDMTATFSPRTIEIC

[3] = test system: HepG2 cells; experiment: HepG2 cell proliferation (Coulter counter); details: 0.75 μM DNAzyme, 5% FBS, 3 days
Description: HepG2 cells were routinely grown in DMEM, pH 7.4, containing 10% fetal calf serum supplemented with antibiotics. The cells were trypsinized, resuspended in growth medium (to 10,000 cells/200 μl) and 200 μl transferred into sterile 96 well titre plates. Two days subsequently, 180 μl of the culture supernatant was removed, the cells were washed with PBS, pH 7.4, and refed with 180 μl of serum free media. After 6 h, the first transfection of DNAzyme (2 μg/200 μl wall, 0.75 μM final) was performed in tubes containing serum free media using FuGENE6 at a ratio of 1:3 (μg:μl). After 15 min incubation at room temperature, 180 μl of the culture supernantant was replaced with 180 μl of the transfection mix, After 24 h, 180 μl of the supernatant was replaced with 180 μl of new transfection mix, but this time in 5% FBS media. After 3 days, the cells were washed in PBS, pH 7.4, and resuspended by trypsinization in 100 μl trypsin-EDTA. The cells were shaken for approximately 5 min to ensure the cells were in suspension. The entire suspension was placed into 10 ml of Isoton II. That all the cells were transferred was ensured by pipetting Isoton II solution from tubes back into wells several times. Using Isoton II only, background cell number was determined. Each sample was counted three times and used to calculate mean counts and standard errors of each mean.

For “DzA: DNAzyme targeting human EGR-1 mRNA (arms hybridize to nts 189-207), 5′-caggggacaGGCTAGCTACAACGAcgttgcggg (DNA CAGGGGACAGGCTAGCTACAACGACGTTGCGGG; DNA, backbone and methylation of C not given here)”, the “HMEC-1 replication (total cell counts)” value [1] was “inhibited”, the “EGR-1 expression in HepG2 cells” value [2] was “strongly inhibited” and the “serum-stimulated HepG2 cell proliferation” value [3] was “almost completely suppressed; also recorded: inhibited”.
